According to PubChem BioAssay AID256 (DTP/NCI, 2004):
Where “and” joins values, the source holds several entries; their conditions need not be identical. Equal values may be shown once. Toxic doses and inconclusive results are not listed.

System: CD2F1 mice, L1210 leukemia ip, survival T/C
Assay: NCI In Vivo Anticancer Drug Screen. Data for tumor model L1210 Leukemia (intraperitoneal) in CD2F1 (CDF1) mice
Conditions: higher = longer survival
In short: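 Ratio T/C, where T is the treated-group value and C the vehicle-dosed control value, from mice implanted with a transplantable tumor.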

SMILES: O=P1(N(CCCl)CCCl)NCCCO1 (configuration not stated)
- T/C (endpoint: mean survival time, dose: 10.0 mg/kg/injection, schedule: Q01DX009 (ip), vehicle: saline): 124 % of control
- T/C (endpoint: mean survival time, dose: 12.5 mg/kg/injection, schedule: Q01DX005 (ip), vehicle: water): 120 % of control and 122 % of control
- T/C (endpoint: mean survival time, dose: 12.5 mg/kg/injection, schedule: Q01DX009 (ip), vehicle: saline): 114 % of control and 123 % of control
- T/C (endpoint: mean survival time, dose: 20.0 mg/kg/injection, schedule: Q01DX009 (ip), vehicle: saline): 122 % of control
- T/C (endpoint: mean survival time, dose: 20.0 mg/kg/injection, schedule: Q03DX003 (ip), vehicle: saline): 124 % of control
- T/C (endpoint: mean survival time, dose: 20.0 mg/kg/injection, schedule: Q04DX003 (ip), vehicle: saline): 114 % of control and 115 % of control
- T/C (endpoint: mean survival time, dose: 25.0 mg/kg/injection, schedule: Q01DX001 (ip), vehicle: DMSO): 115 % of control
- T/C (endpoint: mean survival time, dose: 30.0 mg/kg/injection, schedule: Q04DX003 (ip), vehicle: water): 113 % of control
- T/C (endpoint: mean survival time, dose: 31.3 mg/kg/injection, schedule: Q01DX001 (ip), vehicle: DMSO): 114 % of control
- T/C (endpoint: mean survival time, dose: 31.3 mg/kg/injection, schedule: Q01DX001 (ip), vehicle: saline): 113 % of control
- T/C (endpoint: mean survival time, dose: 38.9 mg/kg/injection, schedule: Q01DX001 (ip), vehicle: water): 119 % of control
- T/C (endpoint: mean survival time, dose: 40.0 mg/kg/injection, schedule: Q01DX007 (ip), vehicle: saline): 163 % of control
- T/C (endpoint: mean survival time, dose: 40.0 mg/kg/injection, schedule: Q01DX009 (ip), vehicle: saline): 170 % of control
- T/C (endpoint: mean survival time, dose: 40.0 mg/kg/injection, schedule: Q03DX003 (ip), vehicle: saline): 151 % of control
- T/C (endpoint: mean survival time, dose: 40.0 mg/kg/injection, schedule: Q04DX003 (ip), vehicle: saline): 155 % of control
- T/C (endpoint: mean survival time, dose: 50.0 mg/kg/injection, schedule: Q01DX001 (ip), vehicle: DMSO): 117 % of control
- T/C (endpoint: mean survival time, dose: 50.0 mg/kg/injection, schedule: Q01DX001 (ip), vehicle: Klucel (hydroxypropylcellulose) (HPC)): 113 % of control
- T/C (endpoint: mean survival time, dose: 50.0 mg/kg/injection, schedule: Q01DX001 (ip), vehicle: other): 115 % of control
- T/C (endpoint: mean survival time, dose: 50.0 mg/kg/injection, schedule: Q01DX009 (ip), vehicle: saline): 165 % of control and 173 % of control
- T/C (endpoint: mean survival time, dose: 62.5 mg/kg/injection, schedule: Q01DX001 (ip), vehicle: Klucel (hydroxypropylcellulose) (HPC)): 122 % of control
- T/C (endpoint: mean survival time, dose: 62.5 mg/kg/injection, schedule: Q01DX001 (ip), vehicle: saline with Tween-80): 124 % of control
- T/C (endpoint: mean survival time, dose: 62.5 mg/kg/injection, schedule: Q01DX001 (ip), vehicle: water): 121 % of control and 122 % of control
- T/C (endpoint: mean survival time, dose: 80.0 mg/kg/injection, schedule: Q03DX003 (ip), vehicle: saline): 192 % of control
- T/C (endpoint: mean survival time, dose: 80.0 mg/kg/injection, schedule: Q04DX003 (ip), vehicle: saline): 187 % of control
- T/C (endpoint: mean survival time, dose: 100.0 mg/kg/injection, schedule: Q01DX001 (ip), vehicle: DMSO): 158 % of control
- T/C (endpoint: mean survival time, dose: 108.0 mg/kg/injection, schedule: Q01DX001 (ip), vehicle: saline): 164 % of control
- T/C (endpoint: mean survival time, dose: 108.0 mg/kg/injection, schedule: Q01DX001 (ip), vehicle: water): 169 % of control
- T/C (endpoint: mean survival time, dose: 125.0 mg/kg/injection, schedule: Q01DX001 (ip), vehicle: Klucel (hydroxypropylcellulose) (HPC)): 170 % of control
- T/C (endpoint: mean survival time, dose: 125.0 mg/kg/injection, schedule: Q01DX001 (ip), vehicle: saline with Tween-80): 150 % of control and 159 % of control
- T/C (endpoint: mean survival time, dose: 125.0 mg/kg/injection, schedule: Q01DX001 (ip), vehicle: water): 156 % of control and 173 % of control
- T/C (endpoint: mean survival time, dose: 133.0 mg/kg/injection, schedule: Q01DX001 (ip), vehicle: saline): 167 % of control
- T/C (endpoint: mean survival time, dose: 135.0 mg/kg/injection, schedule: Q01DX001 (ip), vehicle: saline): 158 % of control and 171 % of control
- T/C (endpoint: mean survival time, dose: 150.0 mg/kg/injection, schedule: Q01DX001 (ip), vehicle: water): 172 % of control
- T/C (endpoint: mean survival time, dose: 160.0 mg/kg/injection, schedule: Q01DX009 (ip), vehicle: saline): 124 % of control
- T/C (endpoint: mean survival time, dose: 180.0 mg/kg/injection, schedule: Q01DX001 (ip), vehicle: water): 176 % of control
- T/C (endpoint: mean survival time, dose: 196.0 mg/kg/injection, schedule: Q01DX001 (ip), vehicle: saline): 201 % of control
- T/C (endpoint: mean survival time, dose: 200.0 mg/kg/injection, schedule: Q01DX001 (ip), vehicle: Klucel (hydroxypropylcellulose) (HPC)): 164 % of control and 198 % of control
- T/C (endpoint: mean survival time, dose: 200.0 mg/kg/injection, schedule: Q01DX001 (ip), vehicle: other): 189 % of control
- T/C (endpoint: mean survival time, dose: 200.0 mg/kg/injection, schedule: Q01DX005 (ip), vehicle: water): 191 % of control
- T/C (endpoint: mean survival time, dose: 200.0 mg/kg/injection, schedule: Q04DX003 (ip), vehicle: saline): 205 % of control
- T/C (endpoint: mean survival time, dose: 250.0 mg/kg/injection, schedule: Q01DX001 (ip), vehicle: saline with Tween-80): 190 % of control
- T/C (endpoint: mean survival time, dose: 250.0 mg/kg/injection, schedule: Q01DX001 (ip), vehicle: water): 188 % of control and 261 % of control and 280 % of control
- T/C (endpoint: mean survival time, dose: 320.0 mg/kg/injection, schedule: Q04DX003 (ip), vehicle: saline): 117 % of control
- T/C (endpoint: mean survival time, dose: 400.0 mg/kg/injection, schedule: Q01DX001 (ip), vehicle: Klucel (hydroxypropylcellulose) (HPC)): 187 % of control
- T/C (endpoint: mean survival time, dose: 400.0 mg/kg/injection, schedule: Q01DX001 (ip), vehicle: other): 183 % of control
- T/C (endpoint: mean survival time, dose: 450.0 mg/kg/injection, schedule: Q01DX001 (ip), vehicle: saline): 209 % of control
- T/C (endpoint: mean survival time, dose: 500.0 mg/kg/injection, schedule: Q01DX001 (ip), vehicle: Klucel (hydroxypropylcellulose) (HPC)): 173 % of control
- T/C (endpoint: mean survival time, dose: 500.0 mg/kg/injection, schedule: Q01DX001 (ip), vehicle: saline with Tween-80): 197 % of control
- T/C (endpoint: mean survival time, dose: 500.0 mg/kg/injection, schedule: Q01DX001 (ip), vehicle: water): 253 % of control and 223 % of control and 271 % of control
- T/C (endpoint: median survival time, dose: 12.5 mg/kg/injection, schedule: Q01DX009 (ip), vehicle: saline): 120 % of control and 122 % of control
- T/C (endpoint: median survival time, dose: 20.0 mg/kg/injection, schedule: Q01DX009 (ip), vehicle: water): 121 % of control
- T/C (endpoint: median survival time, dose: 25.0 mg/kg/injection, schedule: Q01DX001 (ip), vehicle: saline): 117 % of control and 118 % of control
- T/C (endpoint: median survival time, dose: 25.0 mg/kg/injection, schedule: Q01DX001 (ip), vehicle: water): 113 % of control
- T/C (endpoint: median survival time, dose: 31.25 mg/kg/injection, schedule: Q01DX001 (ip), vehicle: water): 116 % of control and 119 % of control (2×)
- T/C (endpoint: median survival time, dose: 40.0 mg/kg/injection, schedule: Q01DX009 (ip), vehicle: water): 153 % of control
- T/C (endpoint: median survival time, dose: 50.0 mg/kg/injection, schedule: Q01DX005 (ip), vehicle: saline): 169 % of control
- T/C (endpoint: median survival time, dose: 50.0 mg/kg/injection, schedule: Q01DX009 (ip), vehicle: saline): 178 % of control and 182 % of control
- T/C (endpoint: median survival time, dose: 50.0 mg/kg/injection, schedule: Q03DX003 (ip), vehicle: saline): 162 % of control
- T/C (endpoint: median survival time, dose: 62.5 mg/kg/injection, schedule: Q01DX001 (ip), vehicle: water): 151 % of control
- T/C (endpoint: median survival time, dose: 66.0 mg/kg/injection, schedule: Q07DX003 (sc), vehicle: saline): 155 % of control and 162 % of control
- T/C (endpoint: median survival time, dose: 100.0 mg/kg/injection, schedule: Q01DX001 (ip), vehicle: water): 155 % of control and 160 % of control
- T/C (endpoint: median survival time, dose: 100.0 mg/kg/injection, schedule: Q01DX009 (ip), vehicle: saline): 114 % of control
- T/C (endpoint: median survival time, dose: 100.0 mg/kg/injection, schedule: Q03DX003 (ip), vehicle: saline): 202 % of control
- T/C (endpoint: median survival time, dose: 108.0 mg/kg/injection, schedule: Q01DX001 (iv), vehicle: saline): 171 % of control
- T/C (endpoint: median survival time, dose: 125.0 mg/kg/injection, schedule: Q01DX001 (ip), vehicle: water): 183 % of control
- T/C (endpoint: median survival time, dose: 150.0 mg/kg/injection, schedule: Q01DX001 (ip), vehicle: saline): 169 % of control
- T/C (endpoint: median survival time, dose: 250.0 mg/kg/injection, schedule: Q01DX001 (ip), vehicle: water): 173 % of control
- T/C (endpoint: median survival time, dose: 330.0 mg/kg/injection, schedule: Q07DX003 (ip), vehicle: saline): 210 % of control
- T/C (endpoint: median survival time, dose: 450.0 mg/kg/injection, schedule: Q01DX001 (ip), vehicle: saline): 154 % of control

SMILES: COc1ccc2c(c1OC)C(=O)OC2c1cc(Br)c(O)c(C2OC(=O)c3c2ccc(OC)c3OC)c1 (configuration not stated)
- T/C (endpoint: mean survival time, dose: 100.0 mg/kg/injection, schedule: Q01DX009 (ip), vehicle: saline with Tween-80): 101 % of control
- T/C (endpoint: mean survival time, dose: 100.0 mg/kg/injection, schedule: Q04DX003 (ip), vehicle: saline with Tween-80): 92 % of control
- T/C (endpoint: mean survival time, dose: 200.0 mg/kg/injection, schedule: Q01DX009 (ip), vehicle: saline with Tween-80): 101 % of control
- T/C (endpoint: mean survival time, dose: 200.0 mg/kg/injection, schedule: Q04DX003 (ip), vehicle: saline with Tween-80): 93 % of control
- T/C (endpoint: mean survival time, dose: 400.0 mg/kg/injection, schedule: Q01DX009 (ip), vehicle: saline with Tween-80): 98 % of control
- T/C (endpoint: mean survival time, dose: 400.0 mg/kg/injection, schedule: Q04DX003 (ip), vehicle: saline with Tween-80): 90 % of control

SMILES: CCCCCC(O)C1C(=O)OC(C)C(O)/C=C/C=C/C=C/C=C\C=C(\C)C(O)CC(O)CC(O)CC(O)CC(O)CC(O)CC1O (configuration not stated)
- T/C (endpoint: median survival time, dose: 3.12 mg/kg/injection, schedule: Q01DX009 (ip), vehicle: distilled water + alcohol): 104 % of control
- T/C (endpoint: median survival time, dose: 6.25 mg/kg/injection, schedule: Q01DX009 (ip), vehicle: distilled water + alcohol): 104 % of control
- T/C (endpoint: median survival time, dose: 12.5 mg/kg/injection, schedule: Q01DX009 (ip), vehicle: distilled water + alcohol): 104 % of control
- T/C (endpoint: median survival time, dose: 25.0 mg/kg/injection, schedule: Q01DX009 (ip), vehicle: distilled water + alcohol): 100 % of control

SMILES: CC/C=C(\C)C=O
- T/C (endpoint: mean survival time, dose: 100.0 mg/kg/injection, schedule: Q01DX001 (ip), vehicle: saline): 100 % of control
- T/C (endpoint: mean survival time, dose: 200.0 mg/kg/injection, schedule: Q01DX001 (ip), vehicle: saline): 97 % of control
- T/C (endpoint: mean survival time, dose: 400.0 mg/kg/injection, schedule: Q01DX001 (ip), vehicle: saline): 97 % of control
